How the values were obtained:
HLA-A24.02 = experiment: Class I MHC peptide binding stability (pMHC-I dissociation, 125I-labeled light chain); set-up: species or system human
HLA-A02.01 [1] = molecular target: HLA-A02.01 (Homo sapiens, UniProt P04439, D140Y/D185E/D98H/E176V/E277Q/G131W/G231S/I119V/I121R/I166T/I218V/L300P/L318F/N151K/N90K/P208A/P217A/Q86G/Q94H/R138H/R169H/T345S); experiment: Class I MHC peptide binding affinity (displacement of radiolabeled reference peptide)
In short: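 Steps: form MHCI complexes carrying labeled reference peptide; add competitor peptides at graded doses; incubate 2 days; separate complex-bound from free label by size-exclusion chromatography and count what remains bound.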

Class I MHC = Class I MHC peptide binding affinity, any other or unspecified HLA allele named in the row; set-up: species or system human; details: EGFR T790M peptides; HLA allele B08.02
HLA-A02.01 [2] = molecular target: T1, HLA-A02.01 (Homo sapiens, UniProt P04439, D140Y/D185E/D98H/E176V/E277Q/G131W/G231S/I119V/I121R/I166T/I218V/N151K/N90K/P208A/P217A/Q86G/Q94H/R138H/R169H); experiment: Class I MHC peptide binding stability (pMHC-I dissociation, 125I-labeled light chain)
T1 construct: made in house; host or cells: E. coli

## CC[C@H](C)[C@H](NC(=O)[C@H](CC(C)C)NC(=O)[C@@H](N)CCC(N)=O)C(=O)N[C@@H](CCSC)C(=O)N[C@@H](CCC(N)=O)C(=O)N[C@@H](CC(C)C)C(=O)N[C@@H](CCSC)C(=O)N1CCC[C@H]1C(=O)N[C@@H](Cc1ccccc1)C(=O)O
HLA-A24.02; EGFR T790M peptides, HLA allele A24.02
  Stability (half-life (hr.)): 22.12 min
HLA-A24.02; allele A24.02
  Stability (T1/2 (h)): 0.4 h
HLA-A02.01 [1]; EGFR T790M peptides, HLA allele A02.01, read-out: Affinity
  Kd: 193 nM
HLA-A02.01 [1]; allele A02.01, read-out: Observed Affinity (IC50, (nM))
  IC50: 227 nM
Class I MHC
  Kd: 5590 nM
HLA-A02.01 [2]; EGFR T790M peptides, HLA allele A02.01
  Stability (half-life (hr.)): 20.44 min
HLA-A02.01 [2]; allele A02.01
  Stability (T1/2 (h)): 0.3 h
